# Measurements as given in patent publication US20130295055A1 (priority 2011, published 2013).
# Like-named read-outs stand apart in the source and are kept apart here.
# Key:
# Format in all cases: cell-based
# [1] = test system: Avian influenza virus AIV0028 (H9N2); settings: Soft Water (Distilled Water)
# [2] = test system: Standard strain Listeria; assay: Sterilization effectiveness on Listeria (number of bacteria over time)
# [3] = test system: Standard strain E. coli; assay: Sterilization effectiveness on E. coli (number of bacteria over time)
# [4] = test system: Salmonella typhimurium ATCC 19585 and Salmonella typhimurium ATCC 43174; assay: Sterilization effectiveness on Salmonella (number of bacteria over time)
# Procedure: Inhibitory effect was evaluated by measuring total numbers of bacteria over time, and the number of bacteria was expressed as log10 CFU/ml.
# Standard strains Salmonella typhimurium ATCC 19585 and Salmonella typhimurium ATCC 43174 were purchased from American Type culture collection, and were incubated in Rappaport-Vassiliadis Soya Peptone Broth (CM0866, Oxoid, the United Kingdom) in a bacterial incubator at 37° C. for 24 hours. Total number of bacteria was measured by diluting strains at stationary phase to 6 to 7 log(cfu/mL).
# 0.2% peptone water was used as a diluent, and the smeared plate medium was incubated in a 37° C. bacterial incubator for 24 hours, and the number of white single colony was counted. Evaluation was carried out with the average of triplicate.
# Malic acid was added to be 0.5%, 1.0%, 2.0%, respectively, to the prepared single colony of Salmonella, and the inhibitory effect on Salmonella over time was examined.
smiles,measurement,setting,value
"O=C(O)CC(O)(CC(=O)O)C(=O)O [Citric Acid, citric acid]",Avian Influenza Titer,"[1]; Citric Acid Concentration 2%, Dilution Rate 1:12.5",1.25 log 10
same,Avian Influenza Titer,"[1]; Citric Acid Concentration 2%, Dilution Rate 1:25",2.00 log 10
same,Avian Influenza Titer,"[1]; Citric Acid Concentration 4%, Dilution Rate 1:50",2.00 log 10
same,Avian Influenza Titer,"[1]; Citric Acid Concentration 6%, Dilution Rate 1:50",2.00 log 10
same,Avian Influenza Titer,"[1]; Citric Acid Concentration 8%, Dilution Rate 1:50",0.75 log 10
"O=C(O)CC(O)(CC(=O)O)C(=O)O [SAL + BROTH (CA 0.5%), citric acid]",number of Listeria bacteria,[2]; 0 min,8.62 log10 CFU/ml
same,number of Listeria bacteria,"[2]; 10 min, listed as LIS + BROTH (CA 0.5%)",8.52 log10 CFU/ml
same,number of Listeria bacteria,"[2]; 20 min, listed as LIS + BROTH (CA 0.5%)",8.48 log10 CFU/ml
same,number of Listeria bacteria,"[2]; 30 min, listed as LIS + BROTH (CA 0.5%)",8.51 log10 CFU/ml
same,number of Listeria bacteria,"[2]; 60 min, listed as LIS + BROTH (CA 0.5%)",8.39 log10 CFU/ml
same,number of E. coli bacteria,[3]; 0 min,8.72 log10 CFU/ml
same,number of E. coli bacteria,"[3]; 10 min, listed as EC + Broth (CA 0.5%)",8.70 log10 CFU/ml
same,number of E. coli bacteria,"[3]; 20 min, listed as EC + Broth (CA 0.5%)",8.64 log10 CFU/ml
same,number of E. coli bacteria,"[3]; 30 min, listed as EC + Broth (CA 0.5%)",8.66 log10 CFU/ml
same,number of E. coli bacteria,"[3]; 60 min, listed as EC + Broth (CA 0.5%)",8.67 log10 CFU/ml
"O=C(O)CC(O)(CC(=O)O)C(=O)O [SAL + BROTH (CA 1.0%), citric acid]",number of Listeria bacteria,[2]; 0 min,8.62 log10 CFU/ml
same,number of Listeria bacteria,"[2]; 10 min, listed as LIS + BROTH (CA 1.0%)",8.47 log10 CFU/ml
same,number of Listeria bacteria,"[2]; 20 min, listed as LIS + BROTH (CA 1.0%)",8.48 log10 CFU/ml
same,number of Listeria bacteria,"[2]; 30 min, listed as LIS + BROTH (CA 1.0%)",8.41 log10 CFU/ml
same,number of Listeria bacteria,"[2]; 60 min, listed as LIS + BROTH (CA 1.0%)",8.42 log10 CFU/ml
same,number of E. coli bacteria,[3]; 0 min,8.72 log10 CFU/ml
same,number of E. coli bacteria,"[3]; 10 min, listed as EC + Broth (CA 1.0%)",8.71 log10 CFU/ml
same,number of E. coli bacteria,"[3]; 20 min, listed as EC + Broth (CA 1.0%)",8.65 log10 CFU/ml
same,number of E. coli bacteria,"[3]; 30 min, listed as EC + Broth (CA 1.0%)",8.70 log10 CFU/ml
same,number of E. coli bacteria,"[3]; 60 min, listed as EC + Broth (CA 1.0%)",8.71 log10 CFU/ml
"O=C(O)CC(O)(CC(=O)O)C(=O)O [SAL + BROTH (CA 2.0%), citric acid]",number of Listeria bacteria,[2]; 0 min,8.62 log10 CFU/ml
same,number of Listeria bacteria,"[2]; 10 min, listed as LIS + BROTH (CA 2.0%)",8.37 log10 CFU/ml
same,number of Listeria bacteria,"[2]; 20 min, listed as LIS + BROTH (CA 2.0%)",8.37 log10 CFU/ml
same,number of Listeria bacteria,"[2]; 30 min, listed as LIS + BROTH (CA 2.0%)",8.38 log10 CFU/ml
same,number of Listeria bacteria,"[2]; 60 min, listed as LIS + BROTH (CA 2.0%)",8.40 log10 CFU/ml
same,number of E. coli bacteria,[3]; 0 min,8.72 log10 CFU/ml
same,number of E. coli bacteria,"[3]; 10 min, listed as EC + Broth (CA 2.0%)",8.71 log10 CFU/ml
same,number of E. coli bacteria,"[3]; 20 min, listed as EC + Broth (CA 2.0%)",8.67 log10 CFU/ml
same,number of E. coli bacteria,"[3]; 30 min, listed as EC + Broth (CA 2.0%)",8.65 log10 CFU/ml
same,number of E. coli bacteria,"[3]; 60 min, listed as EC + Broth (CA 2.0%)",8.61 log10 CFU/ml
"O=C(O)CC(O)C(=O)O (centres unmarked) [SAL + BROTH (MA 0.5%), malic acid]",number of Salmonella bacteria,[4]; 0 min,9.02 log10 CFU/ml
same,number of Salmonella bacteria,[4]; 10 min,9.04 log10 CFU/ml
same,number of Salmonella bacteria,[4]; 20 min,9.05 log10 CFU/ml
same,number of Salmonella bacteria,[4]; 30 min,9.04 log10 CFU/ml
same,number of Salmonella bacteria,[4]; 60 min,9.09 log10 CFU/ml
same,number of Listeria bacteria,[2]; 0 min,8.67 log10 CFU/ml
same,number of Listeria bacteria,"[2]; 10 min, listed as LIS + BROTH (MA 0.5%)",8.55 log10 CFU/ml
same,number of Listeria bacteria,"[2]; 20 min, listed as LIS + BROTH (MA 0.5%)",8.61 log10 CFU/ml
same,number of Listeria bacteria,"[2]; 30 min, listed as LIS + BROTH (MA 0.5%)",8.56 log10 CFU/ml
same,number of Listeria bacteria,"[2]; 60 min, listed as LIS + BROTH (MA 0.5%)",8.58 log10 CFU/ml
same,number of E. coli bacteria,[3]; 0 min,8.61 log10 CFU/ml
same,number of E. coli bacteria,"[3]; 10 min, listed as EC + Broth (MA 0.5%)",8.67 log10 CFU/ml
same,number of E. coli bacteria,"[3]; 20 min, listed as EC + Broth (MA 0.5%)",8.66 log10 CFU/ml
same,number of E. coli bacteria,"[3]; 30 min, listed as EC + Broth (MA 0.5%)",8.86 log10 CFU/ml
same,number of E. coli bacteria,"[3]; 60 min, listed as EC + Broth (MA 0.5%)",8.79 log10 CFU/ml
"O=C(O)CC(O)C(=O)O (centres unmarked) [SAL + BROTH (MA 1.0%), malic acid]",number of Salmonella bacteria,[4]; 0 min,9.02 log10 CFU/ml
same,number of Salmonella bacteria,[4]; 10 min,9.03 log10 CFU/ml
same,number of Salmonella bacteria,[4]; 20 min,9.04 log10 CFU/ml
same,number of Salmonella bacteria,[4]; 30 min,9.04 log10 CFU/ml
same,number of Salmonella bacteria,[4]; 60 min,8.88 log10 CFU/ml
same,number of Listeria bacteria,[2]; 0 min,8.67 log10 CFU/ml
same,number of Listeria bacteria,"[2]; 10 min, listed as LIS + BROTH(MA 1.0%)",8.69 log10 CFU/ml
same,number of Listeria bacteria,"[2]; 20 min, listed as LIS + BROTH(MA 1.0%)",8.60 log10 CFU/ml
same,number of Listeria bacteria,"[2]; 30 min, listed as LIS + BROTH(MA 1.0%)",8.60 log10 CFU/ml
same,number of Listeria bacteria,"[2]; 60 min, listed as LIS + BROTH(MA 1.0%)",8.59 log10 CFU/ml
same,number of E. coli bacteria,[3]; 0 min,8.61 log10 CFU/ml
same,number of E. coli bacteria,"[3]; 10 min, listed as EC + Broth (MA 1.0%)",8.78 log10 CFU/ml
same,number of E. coli bacteria,"[3]; 20 min, listed as EC + Broth (MA 1.0%)",8.74 log10 CFU/ml
same,number of E. coli bacteria,"[3]; 30 min, listed as EC + Broth (MA 1.0%)",8.77 log10 CFU/ml
same,number of E. coli bacteria,"[3]; 60 min, listed as EC + Broth (MA 1.0%)",8.94 log10 CFU/ml
"O=C(O)CC(O)C(=O)O (centres unmarked) [SAL + BROTH (MA 2.0%), malic acid]",number of Salmonella bacteria,[4]; 0 min,9.02 log10 CFU/ml
same,number of Salmonella bacteria,[4]; 10 min,8.88 log10 CFU/ml
same,number of Salmonella bacteria,[4]; 20 min,8.73 log10 CFU/ml
same,number of Salmonella bacteria,[4]; 30 min,8.63 log10 CFU/ml
same,number of Salmonella bacteria,[4]; 60 min,7.50 log10 CFU/ml
same,number of Listeria bacteria,[2]; 0 min,8.67 log10 CFU/ml
same,number of Listeria bacteria,"[2]; 10 min, listed as LIS + BROTH(MA 2.0%)",8.51 log10 CFU/ml
same,number of Listeria bacteria,"[2]; 20 min, listed as LIS + BROTH(MA 2.0%)",8.62 log10 CFU/ml
same,number of Listeria bacteria,"[2]; 30 min, listed as LIS + BROTH(MA 2.0%)",8.55 log10 CFU/ml
same,number of Listeria bacteria,"[2]; 60 min, listed as LIS + BROTH(MA 2.0%)",8.61 log10 CFU/ml
same,number of E. coli bacteria,[3]; 0 min,8.61 log10 CFU/ml
same,number of E. coli bacteria,"[3]; 10 min, listed as EC + Broth (MA 2.0%)",8.69 log10 CFU/ml
same,number of E. coli bacteria,"[3]; 20 min, listed as EC + Broth (MA 2.0%)",8.68 log10 CFU/ml
same,number of E. coli bacteria,"[3]; 30 min, listed as EC + Broth (MA 2.0%)",8.79 log10 CFU/ml
same,number of E. coli bacteria,"[3]; 60 min, listed as EC + Broth (MA 2.0%)",8.63 log10 CFU/ml
